Reference: patent publication US11674967B2, “Method of identifying potential inhibitors of APO TNFα trimers” (UCB BIOPHARMA SRL, priority 2015, dated 2023)

How the values were obtained:
[1] = molecular target: T1, human TNFα trimer (Homo sapiens, UniProt P01375); experiment: RMSD of crystal structure of compound-bound TNFα trimer to Reference Structure Compound 34; conditions: Cα atoms of β-sheet residues, all three subunits, PyMOL
T1 construct: His6Smt-tag (N, cleaved yes); made in house; host or cells: E. coli (vector pEMB54)
Method: Cells were pre-cultured at 37° C. in rich media, induced with the addition of 0.1% arabinose and allowed to express overnight at 25° C. in vector pEMB54. This vector introduces a cleavable N-terminal His6Smt-tag. The cells were lysed and purified by Ni-NTA chelate chromatography. The fusion protein was eluted with buffer containing imidazole and cleaved by the addition of protease. The final cleaved TNFα protein was purified by a subtractive Ni chelate chromatography step to remove the fusion tag and further purified by size exclusion chromatography to remove the remaining impurities. The final TNFα product was typically concentrated to 20.0 mg/ml and flash frozen in liquid nitrogen.
Purified human TNF[…] (20.0 mg/ml, VC 2043) was diluted to 4-7 mg/ml in 10 mM HEPES pH 7.5, 150 mM NaCl buffer followed by overnight incubation at 4° C. with 0.3-0.5 mM compound (1-2 molar excess). The TNF[…] compound complexes were crystallized by sitting drop vapor diffusion by mixing 0.5 μl of complex with 0.5 μl of 21.44% PEG 3350, 100 mM Tris, pH 9.0 (UCB1474433); or 22.0% PEG 3350, 100 mM glycine, 100 mM Tris, pH 8.5 (UCB1480595); or 25.6% PEG 3350, 100 mM Tris, pH 8.3, 3% xylitol (UCB5143079) or other formulation with varying precipitant concentration or additives over 100 μl of the same crystallization solution. Other formulations for other compounds include a range of PEG 3350 of 8-28%. Other PEG-like additives include PEG 1000 (8-18%) or PEG 2000 (10-13%). Other additives include MPD (5-13%) or 200 mM NaCl. Other buffers include 100 mM Hepes (pH 7-8), 100 mM Tris or bis-Tris (pH 6.7-9.0). Other non-PEG 3350 crystallization solutions consist of PEG 2000 (14-19%), 100 mM Hepes, pH 8, 25 mM arginine; or 17% PEG 10000, 200 mM ammonium acetate, 100 mM bis-Tris, pH 5.5; or 30% PEG 2000 MME, 100 mM sodium acetate, 100 mM Mes, pH 6.5.
Crystals were briefly soaked in ethylene glycol and/or vitrified directly in liquid nitrogen for data collection.
X-ray diffraction data were collected from a synchrotron source at a wavelength, most frequently, of 0.976484 Å and recorded on CCD detector. […] The structure of the human TNF[…] (VC 2043) complexed with compound was solved by molecular replacement using Phaser with input model of 1TNF. […] Iterative manual model building using Coot (Emsley and Cowtan, 2004) and Refmac (Murshudov et al., 1997) continued until R and Rfree converged. […] The resolution of the structures was most frequently around 2.15 Å.
Root mean squared deviation (RMSD) calculations were carried out to ascertain the distance of each of the crystal structures of distorted TNFα trimer to a reference structure.
RMSD calculations were done using the program PyMOL (www.pymol.org). In this example version 1.7. was used. The cmd.rms PyMOL command was used with defined pairs of atoms. The atoms used were the backbone Ca's of certain residues within the β-strands of TNFα. The residue numbers used are shown below:
These residue numbers are those within the published structure of TNFα with PDB code 1A8M and within the distorted TNFα trimer structures of this invention. The residue numbers are also according to the sequence of SEQ ID NO:36. The residues in each of the three chains with the TNFα structures, (labelled A, B, and C according to our instructions) were used.
The command cmd.rms was used with the following arguments:
rms=cmd.rms(“(moving)”, “(target)”, matchmaker=4, quiet=0, cycles=0)
where “(moving)” is the selection of atoms in a given TNFα structure and “(target)” is the selection of equivalent atoms within the reference structure.
The RMSD was calculated for each structure against all others. The “representative structure” or “Reference Structure” was chosen to be the one with the lowest sum RMSD to all others—the structure “Compound 34” or “Compound34.pdb”.
Reference Structure (Compound 34) and Query Structure (Compound 64) were overlaid (see FIG. 17 with Reference Structure emboldened) by: • 1. […]

[2] = molecular target: T2, TNFα (Homo sapiens, UniProt P01375); experiment: Fluorescence probed thermal denaturation assay (Thermofluor) of TNFα; assay type: binding; conditions: TNFα + 5% DMSO + compound
Method: A fluorescence probed thermal denaturation assay was performed to assess the effect of the compounds on the thermal stability of TNFα as a measure of compound binding. The reaction mix contained 5 μl of 30×SYPRO® Orange dye (Invitrogen) and 5 μl of TNFα (at 1.0 mg/ml), 37.5 μl PBS, pH 7.4 and 2.5 μl of compound (at 2 mM in DMSO). 10 μl of the mix was dispensed in quadruplicate into a 384 PCR optical well plate and was run on a 7900HT Fast Real-Time PCR System […]. PCR
System heating device was set at 20° C. to 99° C. with a ramp rate of 1.1° C./min; fluorescence changes in the wells were monitored by a Charge-coupled device (CCD). The fluorescence intensity increase was plotted as a function of temperature and the Tm calculated as the midpoint of this denaturation curve (determined as the point of inflection) (Table 1).
Thermofluor measures the change of melting temperature (Tm) of TNFα due to compound either stabilising or disrupting the protein.

[3] = molecular target: T2, TNFα; experiment: Monomer exchange mass spectrometry, compound pre-incubated with h-TNFα; assay type: binding; set-up: made in house; conditions: 1:1 complex mixed with m-TNFα, 18 hours
Method: Human and mouse homotrimers of TNFα (H3 and M3 respectively) were incubated together and aliquots of the solution monitored by mass spectrometry appearance of the cross species heterotrimers. The mass spectrometric analysis confirmed that monomer exchange between native TNFα trimers was able to occur in solution. The exchange rate was slow and was monitored over a course of 4 hours before full equilibration was achieved (data not shown). The mechanism is unknown, although is it unlikely to involve formation of the dimeric forms as none of these were observed. Monomer exchange is likely to be occurring between pure human and mouse trimers, the mixing of mouse and human trimers simply makes this exchange visible by mass spectrometry.
In a second series of experiments an excess of the compound of formula (3) was incubated with Human TNFα, the excess compound of formula (3) was then removed. Mass Spectral analysis confirmed that a 1:1 complex had been formed between the compound of formula (3) and h-TNFα. Mouse TNFα was now added to this sample which was then subjected to mass spectral analysis over a number of hours. After 18 hours there was no observed change in the composition of the sample. […] In addition, there was no evidence of formation of the M3L species and no evidence of formation of the unligated H3 species. […]

T2 sequence (P01375 77-233 limits assumed): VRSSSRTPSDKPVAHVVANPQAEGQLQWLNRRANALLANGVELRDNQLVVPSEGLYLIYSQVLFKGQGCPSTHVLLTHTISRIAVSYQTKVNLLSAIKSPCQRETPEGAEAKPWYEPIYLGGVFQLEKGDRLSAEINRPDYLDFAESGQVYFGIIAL
T1 sequence (P01375 with tags, fused parts or gaps): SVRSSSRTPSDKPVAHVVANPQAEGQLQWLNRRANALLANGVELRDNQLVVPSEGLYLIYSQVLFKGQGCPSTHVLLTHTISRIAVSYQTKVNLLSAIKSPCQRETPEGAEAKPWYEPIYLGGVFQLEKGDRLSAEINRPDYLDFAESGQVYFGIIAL

Compound	RMSD (Å) with Compound 34 [1] [Å]	Tm (° C.) (mean ± sd) [2]	Tm difference (= (TNF + cpd) - (TNF + DMSO)) [2] [°C]	off-rate when complexed with h-TNFα [3]
Cc1ccc(C)c(Cn2c(C(O)c3ccncc3)nc3ccccc32)c1 (centres unmarked) [Compound 3]	0.33	73.2 ± 0.6 (n = 4) ° C.	11.8	no measurable off-rate
Cc1ccc(C)c(Cn2c(C(O)c3ccncc3)nc3ccc(-c4cnn(C)c4)cc32)c1 (centres unmarked) [Compound 15]	0.24	78.5 ± 1.1 (n = 4) ° C.	17.1	no measurable off-rate
